# Experimental data taken from article PMC8803738, “Impact of the mouse model and molar amount of injected ligand on the tissue distribution profile of PSMA radioligands” (European Journal of Nuclear Medicine and Molecular Imaging, 2021).
# Where two headings read alike, the source gives them in different places.
# How the values were obtained:
# [1] = test system: PC-3 PIP tumor cells
# Procedure: (§1) The cells were cultured in RPMI-1640 cell culture medium supplemented with 10% fetal calf serum, L-glutamine, and antibiotics. Puromycin (2 μg/mL) was used to maintain PSMA expression as previously reported [24]. […] The cells were cultured under standard cell culture conditions in RPMI-1640 medium supplemented with 10% fetal calf serum, L-glutamine, antibiotics, and pyruvate (1 mM).
# (§2) In brief, PC-3 PIP and LNCaP tumor cells were seeded in 12-well plates (3 × 10^5 cells and 1 × 10^6 cells in 2 mL medium/well, respectively) and incubated overnight. Both PSMA radioligands were applied at variable molar concentrations (0.75–500 nM) but at a constant activity concentration of 37.5 kBq/mL. The tumor cells were incubated for 4 h followed by washing steps and detachment of the cells for counting in a γ-counter (Perkin Elmer, Wallac Wizard 1480). The studies were performed in three independent experiments of six replicates. Statistical analysis was performed using a two-way ANOVA with Tukey’s and Sidak’s multiple comparison post-test in Graph Pad Prism (version 8) for different concentrations of the same radioligand and for the two radioligands at the same concentration, respectively. A p value of < 0.05 was considered statistically significant.
# (§3) Both tumor cell types were kept in a humidified atmosphere at 37 °C and 5% CO2. Routine cell culture
# (§4) was performed twice a week using PBS/EDTA (2 mM) and trypsin for cell detachment.
# (§5) internalization of the radioligands into PC-3 PIP and LNCaP tumor cells.
# (§6) Methods: Uptake and internalization studies were performed with PC-3 PIP and LNCaP tumor cells
# (§7) using variable concentrations of the respective ligand but constant activity concentrations. PC-3 PIP
# (§8) and LNCaP cells were seeded in 12-well plates and incubated at 37 °C and 5% CO2 overnight.
# (§9) Experiments with LNCaP cells were performed with poly -L-lysine-coated well plates to ensure better
# (§10) cell adherence. The radioligand solution was diluted using saline containing 0.05% bovine serum
# albumin (BSA) to avoid adherence to the vial. A defined volume of 25 µL (corresponding to 37.5 kBq) […]
# [2] = test system: LNCaP tumor cells
# Procedure: as §1, §2, §3, §4, §5, §6, §7, §8, §9, §10
# albumin (BSA) to avoid adherence to the vial. A defined volume of 25 µL (corresponding to 37.5 kBq)
# of this solution was added to the cell monolayers after the addition of 975 µL cell culture medium
# without supplements. The final molar concentrations in each well ranged from 0.75 nM to 500 nM.
# After incubation of the cells for 4 h, several washing steps were performed using PBS for determination
# [3] = test system: PC-3 PIP/flu tumor-bearing mice; conditions: PC-3 PIP model, 1.0 nmol, ref Deberle et al. [21], cited from earlier work
# [4] = test system: PC-3 PIP/flu or LNCaP tumor-bearing mice; assay: Biodistribution, comparison or ranges over both PC-3 PIP and LNCaP tumor mouse models; format: in vivo
# Procedure: Male BALB/c nude mice were subcutaneously inoculated on the right shoulder with LNCaP tumor cells (5 × 10^6 cells in PBS mixed with Matrigel (20 mg/mL, BD Biosciences) at a ratio of 3 to 1 (v/v) to a total volume of 200 μL per mouse). Biodistribution and SPECT/CT imaging studies with both tumor xenograft models were performed when the tumors reached a volume of 100–300 mm^3.
# [^177Lu]Lu-Ibu-DAB-PSMA (5 MBq, 100 µL) and [^177Lu]Lu-PSMA-617 (5 MBq, 100 µL) were diluted in saline containing 0.05% bovine serum albumin (BSA) to prevent adherence of the radioligands to the syringe. The radioligands were intravenously injected at a ligand amount of 0.05 nmol or 1.0 nmol per mouse. The number of mice per setting was commonly n = 3 and, in case of inconclusive results, additional mice up to a total of n = 6 were included. The mice were sacrificed at 4 h, 24 h, or 48 h post injection (p.i.) and selected tissues and organs were collected, weighed, and counted in a γ-counter (Supplementary Material). The data sets were analyzed for significance using a one-way ANOVA with Sidak’s multiple comparison post-test using the GraphPad Prism software (version 8). A p value of < 0.05 was considered statistically significant. Tumor-to-kidney and tumor-to-blood ratios were calculated for all investigated timepoints after injection of each radioligand.
structure (smiles),measurement,setting,value
"CC(C)Cc1ccc(C(C)C(=O)NC(CCN)C(=O)NCCCCC(NC(=O)CN2CCN(CC(=O)O)CCN(CC(=O)O)CCN(CC(=O)O)CC2)C(=O)NCC2CCC(C(=O)NC(Cc3ccc4ccccc4c3)C(=O)NCCCCC(NC(=O)NC(CCC(=O)O)C(=O)O)C(=O)O)CC2)cc1 (stereo not drawn) [[^177Lu]Lu-Ibu-DAB-PSMA, metal not drawn]",Absolute amount of internalized radioligand,[1]; 0.00075 µM,14–21 % of total added activity
same,Internalized fraction,[1]; 4 h,23–28 % of total uptake
same,Cell uptake,"[1]; 4 h, 0.5 µM",≤ 2%
same,Absolute amount of internalized radioligand,[2]; 0.00075 µM,14–21 % of total added activity
same,Internalized fraction,[2]; 4 h,> 60 % of total uptake
same,Cell uptake,"[2]; 4 h, 0.00075 µM",~ 34%
same,Cell uptake,"[2]; 4 h, 0.0075 µM",~ 16%
same,Cell uptake,"[2]; 4 h, 0.025 µM",~ 6%
same,Cell uptake,"[2]; 4 h, 0.5 µM",< 1%
same,"Tissue distribution, Blood",[3]; 4 h p.i.,3.7 ± 0.5 % IA/g
same,"Tissue distribution, Bone",[3]; 4 h p.i.,0.62 ± 0.08 % IA/g
same,"Tissue distribution, Heart",[3]; 4 h p.i.,1.3 ± 0.1 % IA/g
same,"Tissue distribution, Intestines",[3]; 4 h p.i.,0.71 ± 0.05 % IA/g
same,"Tissue distribution, Kidneys",[3]; 4 h p.i.,19 ± 2 % IA/g
same,"Tissue distribution, Liver",[3]; 4 h p.i.,1.5 ± 0.1 % IA/g
same,"Tissue distribution, Lung",[3]; 4 h p.i.,2.4 ± 0.3 % IA/g
same,"Tissue distribution, Muscle",[3]; 4 h p.i.,0.54 ± 0.09 % IA/g
same,"Tissue distribution, PC-3 PIP tumor",[3]; 4 h p.i.,66 ± 11 % IA/g
same,"Tissue distribution, PC-3 flu tumor",[3]; 4 h p.i.,1.2 ± 0.3 % IA/g
same,"Tissue distribution, Salivary glands",[3]; 4 h p.i.,0.86 ± 0.38 % IA/g
same,"Tissue distribution, Spleen",[3]; 4 h p.i.,1.1 ± 0.1 % IA/g
same,"Tissue distribution, Stomach",[3]; 4 h p.i.,0.62 ± 0.12 % IA/g
same,Tumor-to-blood ratio,[3]; 4 h p.i.,18 ± 3
same,Tumor-to-kidney ratio,[3]; 4 h p.i.,3.0 ± 0.5
same,Tumor-to-liver ratio,[3]; 4 h p.i.,45 ± 8
same,"Tissue distribution, Blood",[3]; 24 h p.i.,0.16 ± 0.02 % IA/g
same,"Tissue distribution, Bone",[3]; 24 h p.i.,< 0.10 % IA/g
same,"Tissue distribution, Heart",[3]; 24 h p.i.,0.10 ± 0.01 % IA/g
same,"Tissue distribution, Intestines",[3]; 24 h p.i.,0.11 ± 0.03 % IA/g
same,"Tissue distribution, Kidneys",[3]; 24 h p.i.,6.0 ± 0.7 % IA/g
same,"Tissue distribution, Liver",[3]; 24 h p.i.,0.56 ± 0.10 % IA/g
same,"Tissue distribution, Lung",[3]; 24 h p.i.,0.21 ± 0.03 % IA/g
same,"Tissue distribution, Muscle",[3]; 24 h p.i.,0.05 ± 0.01 % IA/g
same,"Tissue distribution, PC-3 PIP tumor",[3]; 24 h p.i.,52 ± 3 % IA/g
same,"Tissue distribution, PC-3 flu tumor",[3]; 24 h p.i.,0.17 ± 0.01 % IA/g
same,"Tissue distribution, Salivary glands",[3]; 24 h p.i.,0.56 ± 0.37 % IA/g
same,"Tissue distribution, Spleen",[3]; 24 h p.i.,0.32 ± 0.03 % IA/g
same,"Tissue distribution, Stomach",[3]; 24 h p.i.,0.18 ± 0.13 % IA/g
same,Tumor-to-blood ratio,[3]; 24 h p.i.,337 ± 40
same,Tumor-to-kidney ratio,[3]; 24 h p.i.,8.9 ± 1.0
same,Tumor-to-liver ratio,[3]; 24 h p.i.,98 ± 21
same,"Tissue distribution, Blood",[3]; 48 h p.i.,0.10 ± 0.04 % IA/g
same,"Tissue distribution, Bone",[3]; 48 h p.i.,< 0.10 % IA/g
same,"Tissue distribution, Heart",[3]; 48 h p.i.,< 0.10 % IA/g
same,"Tissue distribution, Intestines",[3]; 48 h p.i.,< 0.10 % IA/g
same,"Tissue distribution, Kidneys",[3]; 48 h p.i.,4.1 ± 0.8 % IA/g
same,"Tissue distribution, Liver",[3]; 48 h p.i.,0.49 ± 0.08 % IA/g
same,"Tissue distribution, Lung",[3]; 48 h p.i.,0.14 ± 0.04 % IA/g
same,"Tissue distribution, Muscle",[3]; 48 h p.i.,< 0.10 % IA/g
same,"Tissue distribution, PC-3 PIP tumor",[3]; 48 h p.i.,36 ± 10 % IA/g
same,"Tissue distribution, PC-3 flu tumor",[3]; 48 h p.i.,0.15 ± 0.04 % IA/g
same,"Tissue distribution, Salivary glands",[3]; 48 h p.i.,< 0.10 % IA/g
same,"Tissue distribution, Spleen",[3]; 48 h p.i.,0.26 ± 0.08 % IA/g
same,"Tissue distribution, Stomach",[3]; 48 h p.i.,< 0.10 % IA/g
same,Tumor-to-blood ratio,[3]; 48 h p.i.,364 ± 67
same,Tumor-to-kidney ratio,[3]; 48 h p.i.,8.7 ± 1.8
same,Tumor-to-liver ratio,[3]; 48 h p.i.,72 ± 11
same,Tumor accumulation in PC-3 PIP vs LNCaP tumor xenografts,[4]; 0.05 nmol,approximately fourfold
same,Tumor uptake in PC-3 PIP vs LNCaP tumor xenografts,[4]; 1.0 nmol,6 fold
same,"Kidney retention, low vs high amount of injected ligand","[4]; 4 h p.i., 0.05 nmol vs 1.0 nmol",about fourfold
same,Kidney retention,"[4]; 4 h p.i., high amount of injected ligand (1.0 nmol), range over both mouse models (PC-3 PIP data reproduced from earlier papers)",16–19 % IA/g
same,Kidney retention,"[4]; 4 h p.i., low amount of injected ligand (0.05 nmol), range over both mouse models",58–69 % IA/g
same,Renal retention of activity,"[4]; 24 h p.i., irrespective of the injected ligand amount, range over both mouse models",5.5–6.8 % IA/g
